# System: human placenta
# Assay: Human placental perfusion model (ex vivo placental permeability)
# Assay type: in vitro ADME
# Details: FIG. 12A
# Method: For this Example, the permeability of polymer micelles, low molecular compounds and polymers of different sizes through the human placenta was evaluated using a human placental perfusion model.
# The human placental perfusion model was created according to NPL 4 (K. Shintaku et. al., Drug Metab. Dispos. 37 (2009) 962) and NPL 5 (J. R. Huston et. al., Clin, Pharmacol. Ther, 90 (2011) 67). […] DACH-platin encapsulating micelles (30 nm and 70 nm particle sizes) (DACH-platin dose: 85.4 mg/L), oxaliplatin (2.7 mg/L.) and Cy3-labeled 8-arm PEG (fluorescence intensity: 3,000 (RFU)) were perfused for 60 minutes, and 1 ml of each solution was recovered every 5 minutes from the vein on the fetus side. The platinum contents of the recovered samples from the oxaliplatin-and DACH-platin encapsulating micelle-administered groups were measured by inductively coupled […] mass spectrometry. The fluorescence intensities of the polymers were quantified by HPLC. […]
# The human placental perfusion model was created according to NPL 4 (K. Shintaku et. al., Drug Metab. Dispos. 37 (2009) 962) and NPL 5 (J. R. Huston et. al., Clin. Pharmacol. Ther. 90 (2011) 67). […] The pH of the recovered sample was adjusted, releasing the nicotinamide, and the nicotinamide in the solution was measured by HPLC (detector: EXTREMA by JASCO Corp., column: TSKgel ODS-120H by Tosoh Corp., 1.9 μm). […]
structure (smiles),measurement,setting,value
O=C1[O][Pt]2([NH][C@@H]3CCCC[C@H]3[NH]2)[O]C1=O [oxaliplatin],accumulation in the placenta,human placental perfusion,accumulation of oxaliplatin in the placenta
same,permeation through the placenta,"perfused for 60 minutes, fetus-side vein samples",permeated the placenta

# — patent US20230301909A1 (The University of Tokyo, priority 2020, published 2023)
